Columns and labels:
lambsquarters [1] = assay: Test C preemergence; assay type: in vivo, Chenopodium album; settings: for Lambsquarters plant response rating: scale 0 to 100 (0 no effect, 100 complete control)
Method in brief: (§1)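 Pre- and postemergence greenhouse screen; vehicle was a non-phytotoxic solvent mix with surfactant. Preemergence: treatment applied right after sowing into loam and sand. Postemergence: treated at 1–4 leaves. Visual rating at 13–15 days, 100 = complete control.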

blackgrass = assay: Test C postemergence; assay type: in vivo, Alopecurus myosuroides
Method in brief: as §1

ryegrass, Italian = assay: Test C postemergence; assay type: in vivo, Lolium multiflorum
Method in brief: as §1

galium = assay: Test C postemergence; assay type: in vivo, Galium aparine
Method in brief: as §1

crabgrass, large = assay: Test C postemergence; assay type: in vivo, Digitaria sanguinalis
Method in brief: as §1

foxtail, giant = assay: Test C postemergence; assay type: in vivo, Setaria faberii
Method in brief: as §1

lambsquarters [2] = assay: Test C postemergence; assay type: in vivo, Chenopodium album
Method in brief: as §1

morningglory = assay: Test C postemergence; assay type: in vivo, Ipomoea coccinea
Method in brief: as §1

nutsedge, yellow = assay: Test C postemergence; assay type: in vivo, Cyperus esculentus
Method in brief: as §1

barnyardgrass = assay: Test C postemergence; assay type: in vivo, Echinochloa crus-galli
Method in brief: as §1

oilseed rape = assay: Test C postemergence; assay type: in vivo, Brassica napus
Method in brief: as §1

waterhemp = assay: Test C postemergence; assay type: in vivo, Amaranthus rudis
Method in brief: as §1

oat, wild = assay: Test C postemergence; assay type: in vivo, Avena fatua
Method in brief: as §1

kochia = assay: Test C postemergence; assay type: in vivo, Kochia scoparia
Method in brief: as §1

velvetleaf = assay: Test C postemergence; assay type: in vivo, Abutilon theophrasti
Method in brief: as §1

[3] = Postemergence, 31 g ai/ha, visually evaluated after 13 to 15 days
[4] = postemergence, 62 g ai/ha, scale 0 to 100
[5] = postemergence, 250 g ai/ha, scale 0 to 100 (0 no effect, 100 complete control)
[6] = postemergence, 125 g ai/ha, scale 0 to 100, 0 no effect, 100 complete control

Q: For `CCCNC(=O)c1cc(CC)n(Cc2ccnc(OC(F)F)c2)n1` [Compound 132], which “Plant response rating (scale of 0 to 100), Lambsquarters” value (lambsquarters [1]; Preemergence, 250 g ai/ha) is on record?
A: Its value is 100.

Q: What about the “Lambsquarters plant response rating” value (lambsquarters [1]; preemergence, 31 g ai/ha, visual rating, 13 to 15 days) of the same compound?
A: Its value is 100.

Q: What about the “Lambsquarters plant response rating” value (lambsquarters [1]; preemergence, 62 g ai/ha, 13 to 15 days) of the same compound?
A: Its value is 100.

Q: What about the “Plant response rating, Lambsquarters” value (lambsquarters [1]; preemergence, 125 g ai/ha, 13 to 15 days, scale 0 to 100, 0 = no effect, 100 = complete control) of the same compound?
A: The value was 100.

Q: What about the “Plant response rating (scale of 0 to 100 where 0 is no effect and 100 is complete control), Blackgrass” value (blackgrass; [3]) of the same compound?
A: The value was 5.

Q: And the “Blackgrass plant response rating” value (blackgrass; [4])?
A: Its value is 5.

Q: What about the “Plant response rating, Blackgrass” value (blackgrass; [5]) of the same compound?
A: Its value is 25.

Q: And the “Plant response rating, Blackgrass” value (blackgrass; [6])?
A: Its value is 10.

Q: And the “Plant response rating (scale of 0 to 100 where 0 is no effect and 100 is complete control), Ryegrass, Italian” value (ryegrass, Italian; [3])?
A: The value was 10.

Q: And the “Ryegrass, Italian plant response rating” value (ryegrass, Italian; [4])?
A: The value was 10.

Q: What about the “Plant response rating, Ryegrass, Italian” value (ryegrass, Italian; [5]) of the same compound?
A: Its value is 10.

Q: And the “Plant response rating, Ryegrass, Italian” value (ryegrass, Italian; [6])?
A: The value was 10.

Q: And the “Plant response rating (scale of 0 to 100 where 0 is no effect and 100 is complete control), Galium” value (galium; [3])?
A: The value was 55.

Q: And the “Galium plant response rating” value (galium; [4])?
A: Its value is 60.

Q: What about the “Plant response rating, Galium” value (galium; [5]) of the same compound?
A: The value was 75.

Q: What about the “Plant response rating, Galium” value (galium; [6]) of the same compound?
A: The value was 60.

Q: And the “Plant response rating (scale of 0 to 100 where 0 is no effect and 100 is complete control), Crabgrass, Large” value (crabgrass, large; [3])?
A: Its value is 5.

Q: What about the “Crabgrass, Large plant response rating” value (crabgrass, large; [4]) of the same compound?
A: Its value is 5.

Q: And the “Plant response rating, Crabgrass, Large” value (crabgrass, large; [5])?
A: Its value is 55.

Q: What about the “Plant response rating, Crabgrass, Large” value (crabgrass, large; [6]) of the same compound?
A: The value was 75.

Q: What about the “Plant response rating (scale of 0 to 100 where 0 is no effect and 100 is complete control), Foxtail, Giant” value (foxtail, giant; [3]) of the same compound?
A: Its value is 5.

Q: What about the “Foxtail, Giant plant response rating” value (foxtail, giant; [4]) of the same compound?
A: The value was 10.

Q: What about the “Plant response rating, Foxtail, Giant” value (foxtail, giant; [5]) of the same compound?
A: Its value is 55.

Q: What about the “Plant response rating, Foxtail, Giant” value (foxtail, giant; [6]) of the same compound?
A: The value was 35.

Q: And the “Plant response rating (scale of 0 to 100 where 0 is no effect and 100 is complete control), Lambsquarters” value (lambsquarters [2]; [3])?
A: Its value is 25.

Q: What about the “Lambsquarters plant response rating” value (lambsquarters [2]; [4]) of the same compound?
A: The value was 55.

Q: And the “Plant response rating, Lambsquarters” value (lambsquarters [2]; [5])?
A: The value was 85.

Q: What about the “Plant response rating, Lambsquarters” value (lambsquarters [2]; [6]) of the same compound?
A: Its value is 75.

Q: And the “Plant response rating (scale of 0 to 100 where 0 is no effect and 100 is complete control), Morningglory” value (morningglory; [3])?
A: The value was 30.

Q: And the “Morningglory plant response rating” value (morningglory; [4])?
A: Its value is 75.

Q: What about the “Plant response rating, Morningglory” value (morningglory; [5]) of the same compound?
A: Its value is 98.

Q: What about the “Plant response rating, Morningglory” value (morningglory; [6]) of the same compound?
A: The value was 80.

Q: And the “Plant response rating (scale of 0 to 100 where 0 is no effect and 100 is complete control), Nutsedge, Yellow” value (nutsedge, yellow; [3])?
A: Its value is 5.

Q: And the “Nutsedge, Yellow plant response rating” value (nutsedge, yellow; [4])?
A: Its value is 10.

Q: And the “Plant response rating, Nutsedge, Yellow” value (nutsedge, yellow; [5])?
A: Its value is 10.

Q: What about the “Plant response rating, Nutsedge, Yellow” value (nutsedge, yellow; [6]) of the same compound?
A: Its value is 20.

Q: What about the “Plant response rating (scale of 0 to 100 where 0 is no effect and 100 is complete control), Barnyardgrass” value (barnyardgrass; [3]) of the same compound?
A: The value was 5.

Q: And the “Barnyardgrass plant response rating” value (barnyardgrass; [4])?
A: Its value is 5.

Q: And the “Plant response rating, Barnyardgrass” value (barnyardgrass; [5])?
A: Its value is 50.

Q: What about the “Plant response rating, Barnyardgrass” value (barnyardgrass; [6]) of the same compound?
A: Its value is 10.

Q: What about the “Plant response rating (scale of 0 to 100 where 0 is no effect and 100 is complete control), Oilseed Rape” value (oilseed rape; [3]) of the same compound?
A: Its value is 25.

Q: And the “Oilseed Rape plant response rating” value (oilseed rape; [4])?
A: Its value is 55.

Q: What about the “Plant response rating, Oilseed Rape” value (oilseed rape; [5]) of the same compound?
A: Its value is 65.

Q: And the “Plant response rating, Oilseed Rape” value (oilseed rape; [6])?
A: Its value is 65.

Q: And the “Plant response rating (scale of 0 to 100 where 0 is no effect and 100 is complete control), Waterhemp” value (waterhemp; [3])?
A: The value was 35.

Q: And the “Waterhemp plant response rating” value (waterhemp; [4])?
A: Its value is 55.

Q: What about the “Plant response rating, Waterhemp” value (waterhemp; [5]) of the same compound?
A: The value was 80.

Q: What about the “Plant response rating, Waterhemp” value (waterhemp; [6]) of the same compound?
A: Its value is 65.

Q: And the “Plant response rating (scale of 0 to 100 where 0 is no effect and 100 is complete control), Oat, Wild” value (oat, wild; [3])?
A: Its value is 10.

Q: What about the “Oat, Wild plant response rating” value (oat, wild; [4]) of the same compound?
A: The value was 10.

Q: What about the “Plant response rating, Oat, Wild” value (oat, wild; [5]) of the same compound?
A: The value was 25.

Q: And the “Plant response rating, Oat, Wild” value (oat, wild; [6])?
A: Its value is 10.

Q: And the “Plant response rating (scale of 0 to 100 where 0 is no effect and 100 is complete control), Kochia” value (kochia; [3])?
A: The value was 70.

Q: And the “Kochia plant response rating” value (kochia; [4])?
A: Its value is 80.

Q: What about the “Plant response rating, Kochia” value (kochia; [5]) of the same compound?
A: The value was 90.

Q: And the “Plant response rating, Kochia” value (kochia; [6])?
A: Its value is 80.

Q: What about the “Plant response rating (scale of 0 to 100 where 0 is no effect and 100 is complete control), Velvetleaf” value (velvetleaf; [3]) of the same compound?
A: The value was 5.

Q: What about the “Velvetleaf plant response rating” value (velvetleaf; [4]) of the same compound?
A: The value was 15.

Q: What about the “Plant response rating, Velvetleaf” value (velvetleaf; [5]) of the same compound?
A: The value was 50.

Q: And the “Plant response rating, Velvetleaf” value (velvetleaf; [6])?
A: Its value is 35.

— patent US20150105252A1, “SUBSTITUTED PYRAZOLES AS HERBICIDES” (E I DU PONT DE NEMOURS AND COMPANY, priority 2013, published 2015)
